Data: US12590066B2, “Fused-heterocyclyl-carbonohydrazonoyl dicyanide compounds and use thereof” (KOREA INSTITUTE OF SCIENCE AND TECHNOLOGY, priority 2020, dated 2026)

Assays:
[1] = biological target: T1, CYP2C19 (Homo sapiens, UniProt P33261); test: Inhibitory effect on CYP coenzyme activity, human liver microsomes; type: in vitro ADME; details: 10 μM compound, human liver microsomes 0.25 mg/mL, substrate S-mephenytoin, 15 minutes
T1 construct: human liver microsomes (0.25 mg/mL); from tissue; host or cells: human liver microsomes
In short: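 Cocktail inhibition: HLM 0.25 mg/mL, 0.1 M PO4 pH 7.4, 37 °C; 5 min preinc., then 15 min + NADPH regen.; cpd 10 μM; probes phenacetin/diclofenac/S-mephenytoin/dextromethorphan/midazolam at 50/10/100/5/2.5 μM; LC-MS/MS MRM; % remaining activity vs no-compound control.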

[2] = biological target: T2, tau protein (Homo sapiens, UniProt P10636); test: Tau-BiFC cell model, inhibition of Forskolin-induced tau protein aggregation; type: cell-based; details: Forskolin 30 μM, 48 hours; for Tau BiFC in cells Response (% @10 μM): 10 μM compound, Forskolin-only group = 100% tau protein-aggregated state; for IC50: tau-BiFC cells
T2 construct: BiFC fluorescent-protein fragments (type and halves not specified); expressed in transfected cells
Description: In order to select novel tau protein aggregation-inhibiting substances, tau-BiFC cell model, in which formation of tau oligomers in living cells is easily observed, was used. Tau-BiFC cells were aliquoted into a 384-well plate. On the next day, the cells were treated with each of the compounds prepared according to Examples 1 to 57 at concentrations of 1 μM, 3 μM, and 10 μM, together with Forskolin (at a treatment concentration of 30 μM), which is a compound inducing tau protein aggregation by activating tau phosphorylase PKA. After 48 hours, nuclei in the cells were stained using Hoechst (at a treatment concentration of 2 μg/mL), and BiFC fluorescence intensity was automatically measured using Operetta (PerkinElmer) to count stained nuclei in each well out of the entire well plate. The group treated only with Forskolin, which induces tau protein aggregation, was set to a reference point of a 100% tau protein-aggregated state, and the effects of the compounds were confirmed using the equation “BiFC fluorescence intensity due to compound synthesized according to embodiment of present invention/(fluorescence intensity of control group treated only with Forskolin inducing tau protein aggregation−fluorescence intensity of untreated control group)×100”. Furthermore, the degree of cytotoxicity induced by the newly synthesized compound was also measured based on the 100% cell viability of the group treated only with Forskolin as a reference, and the cytotoxicity value of each compound was calculated using the equation “(number of stained nuclei in group treated with compound/number of stained nuclei in group treated with Forskolin)×100”. Based on the treatment results, substances inhibiting intracellular tau protein aggregation were selected from a series of candidate groups showing a tau protein aggregation inhibition rate of 70% or more and cell viability of 100% at a compound treatment concentration of 10 μM or more.
In order to evaluate dose-dependent tau protein aggregation inhibition effects of the compounds selected according to Experimental Example 1 on tau protein aggregation, tau-BiFC cells were treated with the selected compounds at concentrations of 0.03 μM, […], 0.3 μM, 1 μM, 3 μM, 10 μM, and 30 μM, respectively, together with Forskolin (at a treatment concentration of 30 μM), which is a tau protein aggregation-inducing substance. After 48 hours, tau protein aggregation reaction and degrees of cytotoxicity were analyzed by observing images of the cells. IC50 and toxicity of the compounds were analyzed by way of nonlinear regression analysis of prism software (Graph Pad).

T1 sequence (P33261 whole entry): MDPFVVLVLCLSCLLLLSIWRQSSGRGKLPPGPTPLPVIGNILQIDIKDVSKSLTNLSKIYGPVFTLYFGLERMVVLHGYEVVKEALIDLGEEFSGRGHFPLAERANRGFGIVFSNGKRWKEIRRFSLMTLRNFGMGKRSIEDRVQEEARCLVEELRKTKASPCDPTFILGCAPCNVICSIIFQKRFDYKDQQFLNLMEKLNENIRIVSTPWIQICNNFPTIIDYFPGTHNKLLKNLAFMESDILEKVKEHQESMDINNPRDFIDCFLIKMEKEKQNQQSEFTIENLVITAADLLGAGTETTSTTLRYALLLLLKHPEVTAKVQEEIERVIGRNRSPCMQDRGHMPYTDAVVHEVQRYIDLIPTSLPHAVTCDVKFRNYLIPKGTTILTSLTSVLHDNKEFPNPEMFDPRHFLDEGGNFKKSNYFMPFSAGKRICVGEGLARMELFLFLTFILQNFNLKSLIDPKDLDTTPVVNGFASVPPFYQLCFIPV
T2 sequence (P10636 1-441 isoform P10636-8): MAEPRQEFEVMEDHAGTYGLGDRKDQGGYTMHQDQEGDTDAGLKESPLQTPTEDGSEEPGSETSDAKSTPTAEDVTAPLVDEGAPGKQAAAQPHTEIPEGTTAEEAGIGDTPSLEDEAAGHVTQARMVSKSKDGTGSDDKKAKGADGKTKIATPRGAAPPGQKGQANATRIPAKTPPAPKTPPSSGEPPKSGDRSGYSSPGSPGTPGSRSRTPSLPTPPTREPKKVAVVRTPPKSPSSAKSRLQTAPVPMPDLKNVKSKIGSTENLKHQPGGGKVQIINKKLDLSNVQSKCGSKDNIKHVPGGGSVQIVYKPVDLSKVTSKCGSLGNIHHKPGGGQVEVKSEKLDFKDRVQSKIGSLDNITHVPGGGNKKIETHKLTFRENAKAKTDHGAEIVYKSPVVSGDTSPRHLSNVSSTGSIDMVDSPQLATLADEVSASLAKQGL

| Structure (SMILES) | CYP2C19 coenzyme activity (%) with respect to control group not treated [1] [%] | Tau BiFC in cells Response (% @10 μM) [2] [%] | IC50 [2] [nM] |
| --- | --- | --- | --- |
| Cn1ccc2ccc(NN=C(C#N)C#N)cc2c1=O [Compound 2, (2-methyl-1-oxo-1,2-dihydroisoquinolin-7-yl)carbonohydrazonoyl dicyanide] | 79.2 | 0 | – |
| CC(C)n1ccc2ccc(NN=C(C#N)C#N)cc2c1=O [Compound 3, (2-isopropyl-1-oxo-1,2-dihydroisoquinolin-7-yl)carbonohydrazonoyl dicyanide] | 98.2 | 0 | 200 |
| N#CC(C#N)=NNc1cccc2c(=O)[nH]ccc12 [Compound 4, (1-oxo-1,2-dihydroisoquinolin-5-yl)carbonohydrazonoyl dicyanide] | 89.7 | 0 | 1800 |
| Cn1ccc2c(NN=C(C#N)C#N)cccc2c1=O [Compound 5, (2-methyl-1-oxo-1,2-dihydroisoquinolin-5-yl)carbonohydrazonoyl dicyanide] | >100 | 0 | – |
| CC(C)n1ccc2c(NN=C(C#N)C#N)cccc2c1=O [Compound 6, (2-isopropyl-1-oxo-1,2-dihydroisoquinolin-5-yl)carbonohydrazonoyl dicyanide] | 37.8 | 0 | 700 |
| Cc1cc2c(NN=C(C#N)C#N)cccc2c(=O)n1C [Compound 7, (2,3-dimethyl-1-oxo-1,2-dihydroisoquinolin-5-yl)carbonohydrazonoyl dicyanide] | 65.1 | 0 | 200 |
| Cn1c(=O)n(C)c2cc(NN=C(C#N)C#N)c(Cl)cc21 [Compound 10, (6-chloro-1,3-dimethyl-2-oxo-2,3-dihydro-1H-benzo[d]imidazol-5-yl)carbonohydrazonoyl dicyanide] | 94.6 | 0 | 300 |
| Cn1c(=O)n(C)c2c(Cl)cc(NN=C(C#N)C#N)cc21 [Compound 11, (7-chloro-1,3-dimethyl-2-oxo-2,3-dihydro-1H-benzo[d]imidazol-5-yl)carbonohydrazonoyl dicyanide] | 88.4 | 0 | 100 |
| Cn1c(=O)n(C)c2ncc(NN=C(C#N)C#N)cc21 [Compound 12, (1,3-dimethyl-2-oxo-2,3-dihydro-1H-imidazo[4,5-b]pyridin-6-yl)carbonohydrazonoyl dicyanide] | 92.2 | 0 | 870 |
| N#CC(C#N)=NNc1ccc2[nH]c(=O)sc2c1 [Compound 13, (2-oxo-2,3-dihydrobenzo[d]thiazol-6-yl)carbonohydrazonoyl dicyanide] | 55.2 | 0.8 | 200 |
| Cn1c(=O)sc2cc(NN=C(C#N)C#N)ccc21 [Compound 14, (3-methyl-2-oxo-2,3-dihydrobenzo[d]thiazol-6-yl)carbonohydrazonoyl dicyanide] | 68.8 | 0 | 60 |
| N#CC(C#N)=NNc1ccc2[nH]c(=O)oc2c1 [Compound 15, (2-oxo-2,3-dihydrobenzo[d]oxazol-6-yl)carbonohydrazonoyl dicyanide] | 90.3 | 5.5 | 8400 |
| Cn1c(=O)oc2cc(NN=C(C#N)C#N)ccc21 [Compound 16, (3-methyl-2-oxo-2,3-dihydrobenzo[d]oxazol-6-yl)carbonohydrazonoyl dicyanide] | 90.8 | 0 | 600 |
| Cn1c(=O)[nH]c2cc(NN=C(C#N)C#N)ccc21 [Compound 17, (1-methyl-2-oxo-2,3-dihydro-1H-benzo[d]imidazol-5-yl)carbonohydrazonoyl dicyanide] | 80.4 | 0 | 1200 |
| CC(C)n1c(=O)sc2cc(NN=C(C#N)C#N)ccc21 [Compound 18, (3-isopropyl-2-oxo-2,3-dihydrobenzo[d]thiazol-6-yl)carbonohydrazonoyl dicyanide] | 63.2 | 0 | 40 |
| N#CC(C#N)=NNc1ccc2c(c1)sc(=O)n2C(F)F [Compound 19, (3-(difluoromethyl)-2-oxo-2,3-dihydrobenzo[d]thiazol-6-yl)carbonohydrazonoyl dicyanide] | 75.7 | 0 | 100 |
| CC(C)n1c(=O)oc2cc(NN=C(C#N)C#N)ccc21 [Compound 20, (3-isopropyl-2-oxo-2,3-dihydrobenzo[d]oxazol-6-yl)carbonohydrazonoyl dicyanide] | 85.7 | 0 | 100 |
| N#CC(C#N)=NNc1ccc2c(c1)oc(=O)n2C(F)F [Compound 21, (3-(difluoromethyl)-2-oxo-2,3-dihydrobenzo[d]oxazol-6-yl)carbonohydrazonoyl dicyanide] | 83.7 | 0 | 600 |
| Cn1c(=O)n(C)c2cc(NN=C(C#N)C#N)ccc21 [Compound 22, (1,3-dimethyl-2-oxo-2,3-dihydro-1H-benzo[d]imidazol-5-yl)carbonohydrazonoyl dicyanide] | >100 | 0 | 200 |
| CC(C)n1c(=O)n(C(C)C)c2cc(NN=C(C#N)C#N)ccc21 [Compound 23, (1,3-diisopropyl-2-oxo-2,3-dihydro-1H-benzo[d]imidazol-5-yl)carbonohydrazonoyl dicyanide] | 69.7 | 0 | 100 |
| N#CC(C#N)=NNc1ccc2c(c1)n(C(F)F)c(=O)n2C(F)F [Compound 24, (1,3-bis(difluoromethyl)-2-oxo-2,3-dihydro-1H-benzo[d]imidazol-5-yl)carbonohydrazonoyl dicyanide] | 73.9 | 0 | 200 |
| CC(C)n1c(=O)oc2ccc(NN=C(C#N)C#N)cc21 [Compound 29, (3-isopropyl-2-oxo-2,3-dihydrobenzo[d]oxazol-5-yl)carbonohydrazonoyl dicyanide] | 91.3 | −31 | 70 |
| COc1cc(NN=C(C#N)C#N)cc2c1n(C)c(=O)n2C [Compound 33, (7-methoxy-1,3-dimethyl-2-oxo-2,3-dihydro-1H-benzo[d]imidazol-5-yl)carbonohydrazonoyl dicyanide] | >100 | −43 | 5 |
